Results from patent US20070093484A1, “3-Substituted 5,6-diaryl-pyrazine-2-carboxamide and -2-sulfonamide derivatives as cb1 modulators” (ASTRAZENECA AB, priority 2003, published 2007).

Molecular target: T1, CB1 receptor (Homo sapiens, UniProt P21554)
T1 construct: expressed in transfected cells
Test: [35S]-GTPγS binding assay, inhibition of CP55940-stimulated activity in membranes from CB1-transfected cells
Format: biochemical
Settings: membranes from cells stably transfected with the CB1 gene; EC80 concentration of agonist CP55940; 30° C., 45 min; read-out: IC50 (concentration required to give half maximal inhibition of GTPγS binding)
From the text: Compounds of the present invention are active against the receptor product of the CB1 gene. The compounds of the present invention are active at the CB 1 receptor (IC50<1 micromolar). Most preferred compounds have IC50<200 nanomolar. The affinity of the compounds of the invention for central cannabinoid receptors is demonstrable in methods described in Devane et al, Molecular Pharmacology, 1988, 34,605 or those described in WO 01/70700 or EP 656354. Alternatively the assay may be performed as follows.
10 μg of membranes prepared from cells stably transfected with the CB1 gene were suspended in 200 μl of 100 mM NaCl, 5 mM MgCl2, 1 mM EDTA, 50 mM HEPES (pH 7.4), 1 mM DTT, 0.1% BSA and 100 μM GDP. To this was added an EC80 concentration of agonist CP55940), the required concentration of test compound and 0.1 μCi [^35S]-GTPγS. The reaction was allowed to proceed at 30° C. for 45 nun. Samples were then transferred on to GF/B filters using a cell harvester and washed with wash buffer (50 mM Tris (pH 7.4), 5 mM MgCl2, 50 mM NaCl). Filters were then covered with scintilant and counted for the amount of [35]-GTPγS retained by the filter.
Activity is measured in the absence of all ligands (minimum activity) or in the presence of an EC80 concentration of CP55940 (maximum activity). These activities are set as 0% and 100% activity respectively. At various concentrations of novel ligand, activity is calculated as a percentage of the maximum activity and plotted. The data are fitted using the equation y=A+((B−A)/1+((C/x)UD)) and the IC50 value determined as the concentration required to give half maximal inhibition of GTPγS binding under the conditions used.

T1 sequence (P21554 whole entry): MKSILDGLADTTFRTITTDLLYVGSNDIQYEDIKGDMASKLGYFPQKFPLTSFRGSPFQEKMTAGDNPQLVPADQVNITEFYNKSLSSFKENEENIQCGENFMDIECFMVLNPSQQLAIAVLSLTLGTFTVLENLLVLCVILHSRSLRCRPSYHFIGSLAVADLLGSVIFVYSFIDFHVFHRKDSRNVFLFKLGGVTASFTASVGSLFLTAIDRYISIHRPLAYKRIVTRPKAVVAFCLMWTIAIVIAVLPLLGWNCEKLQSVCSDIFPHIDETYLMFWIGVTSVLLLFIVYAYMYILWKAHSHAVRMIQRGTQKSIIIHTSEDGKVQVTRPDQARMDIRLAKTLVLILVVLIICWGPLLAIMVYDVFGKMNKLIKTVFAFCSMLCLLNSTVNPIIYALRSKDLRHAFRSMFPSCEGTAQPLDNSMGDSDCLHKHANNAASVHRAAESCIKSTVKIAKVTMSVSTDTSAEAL

Row | IC50 [nM] | Compound
1 | 1.8 | CC(C)(C)NNC(=O)c1nc(-c2ccc(Cl)cc2)c(-c2ccc(Cl)cc2)nc1C(=O)OC(C)(C)C [Example 9]
2 | 1.4 | Cc1ccc(-c2nc(Cn3cnnn3)c(C(=O)NN3CCCCC3)nc2-c2ccc(C)cc2)cc1 [Example 35, 5,6-Bis(4-methylphenyl)-N-piperidin-1-yl-3-(1H-tetrazol-1-ylmethyl)pyrazine-2-carboxamide]
3 | 13.5 | O=C(NN1CCCCC1)c1nc(-c2ccc(Cl)cc2)c(-c2ccc(Cl)cc2)nc1CN1CCOCC1 [Example 27, 5,6-bis(4-chlorophenyl)-3-(morpholin-4-ylmethyl)-N-piperidin-1-ylpyrazine-2-carboxamide]
